Patent US20200187502A1, “MICROBIOCIDAL OXADIAZOLE DERIVATIVES” (SYNGENTA PARTICIPATIONS AG, priority 2017, published 2020)

How the values were obtained:
[1] = tested on: Puccinia recondita f. Sp. Tritici; assay: Fungicidal activity, wheat leaf disc curative (brown rust); assay type: in vivo; details: foliar, 200 ppm in the applied formulation, wheat leaf segments cv. Kanzler, curative (applied 1 day after inoculation), compared to untreated control, 6 to 8 days after application, read-out: disease control
Summary of the method: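 Segments of wheat (cultivar Kanzler) sit on agar and are spore-inoculated first; after one day in darkness at 19° C and 75% RH the diluted formulated compound is sprayed on. A 12 h photoperiod follows at the same temperature and humidity before disease is scored against untreated controls.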

[2] = tested on: Phakopsora pachyrhizi; assay: Fungicidal activity, soybean leaf disc preventative (Asian soybean rust); assay type: in vivo; details: foliar, 200 ppm in the applied formulation, soybean leaf disks, compared to untreated control, 12 to 14 days after application, read-out: disease control
Protocol: Leaf disks or leaf segments of various plant species are cut from plants grown in a greenhouse. The cut leaf disks or segments are placed in multiwell plates (24-well format) onto water agar. The leaf disks are sprayed with a test solution before (preventative) or after (curative) inoculation. Compounds to be tested are prepared as DMSO solutions (max. 10 mg/ml) which are diluted to the appropriate concentration with 0.025% Tween20 just before spraying. The inoculated leaf disks or segments are incubated under defined conditions (temperature, relative humidity, light, etc.) according to the respective test system. A single evaluation of disease level is carried out 3 to 14 days after inoculation, depending on the pathosystem. Percent disease control relative to the untreated check leaf disks or segments is then calculated.
Soybean leaf disks are placed on water agar in multiwell plates (24-well format) and sprayed with the formulated test compound diluted in water. One day after application leaf discs are inoculated by spraying a spore suspension on the lower leaf surface. After an incubation period in a climate cabinet of 24-36 hours in darkness at 20° C. and 75% rh leaf disc are kept at 20° C. with 12 h light/day and 75% rh. The activity of a compound is assessed as percent disease control compared to untreated when an appropriate level of disease damage appears in untreated check leaf disks (12 to 14 days after application).
The following compounds at 200 ppm in the applied formulation give at least 80% disease control in this test when compared to untreated control leaf disks under the same conditions, which show extensive disease development.

[3] = tested on: Puccinia recondita f. Sp. Tritici; assay: Fungicidal activity, wheat leaf disc preventative (brown rust); assay type: in vivo; details: foliar, 200 ppm in the applied formulation, wheat leaf segments cv. Kanzler, compared to untreated control, 7 to 9 days after application, read-out: disease control
Summary of the method: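 Preventative leaf-segment test: spray application of diluted formulated compound on wheat cv. Kanzler, spore inoculation after 1 day. Percent control relative to untreated segments rated 7 to 9 days post-application, with incubation at 19° C, 75% relative humidity, 12 h photoperiod.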

[4] = tested on: Glomerella lacenarium (Colletotrichum lacenarium); assay: Fungicidal activity, liquid culture, cucumber preventative (anthracnose); assay type: cell-based; details: 20 ppm in the applied formulation, liquid culture in PDB, inhibition of growth measured photometrically 3 to 4 days after application, compared to untreated control, read-out: disease control
Summary of the method: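 Test compound in DMSO is placed in a microtiter plate, then potato dextrose broth containing conidia from cryogenic storage is added. Incubation runs at 24° C., and growth inhibition is read photometrically after 3 to 4 days.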

CCCC(=O)NCc1ccc(-c2noc(C(F)(F)F)n2)s1 [Compound 2.8, N-[[5-[5-(trifluoromethyl)-1,2,4-oxadiazol-3-yl]-2-thienyl]methyl]butanamide]
≥ 80%: pest or weed control at 200 ppm [1] | pest or weed control at 200 ppm [2] | pest or weed control at 200 ppm [3] | inhibition of growth at 20 ppm [4]

COCCS(=O)(=O)N(C)Cc1ccc(-c2noc(C(F)(F)F)n2)s1 [Compound 6.21, 2-methoxy-N-methyl-N-[[5-[5-(trifluoromethyl)-1,2,4-oxadiazol-3-yl]-2-thienyl]methyl]ethanesulfonamide]
≥ 80%: pest or weed control at 200 ppm [1] | pest or weed control at 200 ppm [2] | pest or weed control at 200 ppm [3] | inhibition of growth at 20 ppm [4]

CNC(=O)N(Cc1ccc(-c2noc(C(F)(F)F)n2)s1)C1CC1 [Compound 4.2, 1-cyclopropyl-3-methyl-1-[[5-[5-(trifluoromethyl)-1,2,4-oxadiazol-3-yl]-2-thienyl]methyl]urea]
≥ 80%: pest or weed control at 200 ppm [1] | pest or weed control at 200 ppm [2] | pest or weed control at 200 ppm [3] | inhibition of growth at 20 ppm [4]

CCN(Cc1ccc(-c2noc(C(F)(F)F)n2)s1)C(=O)NC(C)C [Compound 4.9, 1-ethyl-3-isopropyl-1-[[5-[5-(trifluoromethyl)-1,2,4-oxadiazol-3-yl]-2-thienyl]methyl]urea]
≥ 80%: pest or weed control at 200 ppm [1] | pest or weed control at 200 ppm [2] | pest or weed control at 200 ppm [3] | inhibition of growth at 20 ppm [4]

COCCNC(=O)N(Cc1ccc(-c2noc(C(F)(F)F)n2)s1)C1CC1 [Compound 4.89, 1-cyclopropyl-3-(2-methoxyethyl)-1-[[5-[5-(trifluoromethyl)-1,2,4-oxadiazol-3-yl]-2-thienyl]methyl]urea]
≥ 80%: pest or weed control at 200 ppm [1] | pest or weed control at 200 ppm [2] | pest or weed control at 200 ppm [3] | inhibition of growth at 20 ppm [4]

O=C(NC1CC1)N(Cc1ccc(-c2noc(C(F)(F)F)n2)s1)C1CC1 [Compound 5.62, 1,3-dicyclopropyl-1-[[5-[5-(trifluoromethyl)-1,2,4-oxadiazol-3-yl]-2-thienyl]methyl]urea]
≥ 80%: pest or weed control at 200 ppm [1] | pest or weed control at 200 ppm [2] | pest or weed control at 200 ppm [3] | inhibition of growth at 20 ppm [4]

CCCC(=O)N(Cc1ccc(-c2noc(C(F)(F)F)n2)s1)C1CC1 [Compound 4.54, N-cyclopropyl-N-[[5-[5-(trifluoromethyl)-1,2,4-oxadiazol-3-yl]-2-thienyl]methyl]butanamide]
≥ 80%: pest or weed control at 200 ppm [1] | pest or weed control at 200 ppm [2] | pest or weed control at 200 ppm [3] | inhibition of growth at 20 ppm [4]

CON(Cc1ccc(-c2noc(C(F)(F)F)n2)s1)C(=O)C1CC1C (stereo not shown) [Compound 1.14, N-methoxy-2-methyl-N-[[5-[5-(trifluoromethyl)-1,2,4-oxadiazol-3-yl]-2-thienyl]methyl]cyclopropanecarboxamide]
≥ 80%: pest or weed control at 200 ppm [1] | pest or weed control at 200 ppm [2] | pest or weed control at 200 ppm [3] | inhibition of growth at 20 ppm [4]

CCNC(=O)N(Cc1ccc(-c2noc(C(F)(F)F)n2)s1)OC [Compound 1.51, 3-ethyl-1-methoxy-1-[[5-[5-(trifluoromethyl)-1,2,4-oxadiazol-3-yl]-2-thienyl]methyl]urea]
≥ 80%: pest or weed control at 200 ppm [1] | pest or weed control at 200 ppm [2] | pest or weed control at 200 ppm [3] | inhibition of growth at 20 ppm [4]

CNC(=O)N(C)Cc1ccc(-c2noc(C(F)(F)F)n2)s1 [Compound 4.1, 1,3-dimethyl-1-[[5-[5-(trifluoromethyl)-1,2,4-oxadiazol-3-yl]-2-thienyl]methyl]urea]
≥ 80%: pest or weed control at 200 ppm [1] | pest or weed control at 200 ppm [2] | pest or weed control at 200 ppm [3] | inhibition of growth at 20 ppm [4]

CCN(Cc1ccc(-c2noc(C(F)(F)F)n2)s1)C(=O)C1(C)COC1 [Compound 5.14, N-ethyl-3-methyl-N-[[5-(5-(trifluoromethyl)-1,2,4-oxadiazol-3-yl]-2-thienyl]methyl]oxetane-3-carboxamide]
≥ 80%: pest or weed control at 200 ppm [1] | pest or weed control at 200 ppm [2] | pest or weed control at 200 ppm [3] | inhibition of growth at 20 ppm [4]

CCN(CC)C(=O)N(C)Cc1ccc(-c2noc(C(F)(F)F)n2)s1 [Compound 4.79, 1,1-diethyl-3-methyl-3-[[5-[5-(trifluoromethyl)-1,2,4-oxadiazol-3-yl]-2-thienyl]methyl]urea]
≥ 80%: pest or weed control at 200 ppm [1] | pest or weed control at 200 ppm [2] | pest or weed control at 200 ppm [3] | inhibition of growth at 20 ppm [4]

COC(C)C(=O)N(Cc1ccc(-c2noc(C(F)(F)F)n2)s1)OC (stereo not shown) [Compound 1.1, N,2-dimethoxy-N-[[5-[5-(trifluoromethyl)-1,2,4-oxadiazol-3-yl]-2-thienyl]methyl]propanamide]
≥ 80%: pest or weed control at 200 ppm [1] | pest or weed control at 200 ppm [2] | pest or weed control at 200 ppm [3] | inhibition of growth at 20 ppm [4]

CON(Cc1ccc(-c2noc(C(F)(F)F)n2)s1)C(=O)C1CCCO1 (stereo not shown) [Compound 1.17, N-methoxy-N-[[5-[5-(trifluoromethyl)-1,2,4-oxadiazol-3-yl]-2-thienyl]methyl]tetrahydrofuran-2-carboxamide]
≥ 80%: pest or weed control at 200 ppm [1] | pest or weed control at 200 ppm [2] | pest or weed control at 200 ppm [3] | inhibition of growth at 20 ppm [4]

CNC(=O)N(Cc1ccc(-c2noc(C(F)(F)F)n2)s1)C(C)C [Compound 4.13, 1-isopropyl-3-methyl-1-[[5-[5-(trifluoromethyl)-1,2,4-oxadiazol-3-yl]-2-thienyl]methyl]urea]
≥ 80%: pest or weed control at 200 ppm [1] | pest or weed control at 200 ppm [2] | pest or weed control at 200 ppm [3] | inhibition of growth at 20 ppm [4]

CC(C)(C)OC(=O)NCc1ccc(-c2noc(C(F)(F)F)n2)s1 [Compound 2.1, tert-butyl N-[[5-[5-(trifluoromethyl)-1,2,4-oxadiazol-3-yl]-2-thienyl]methyl]carbamate]
≥ 80%: pest or weed control at 200 ppm [1] | pest or weed control at 200 ppm [2] | pest or weed control at 200 ppm [3] | inhibition of growth at 20 ppm [4]

COC(C)C(=O)NCc1ccc(-c2noc(C(F)(F)F)n2)s1 (stereo not shown) [Compound 2.6, 2-methoxy-N-[[5-[5-(trifluoromethyl)-1,2,4-oxadiazol-3-yl]-2-thienyl]methyl]propanamide]
≥ 80%: pest or weed control at 200 ppm [1] | pest or weed control at 200 ppm [2] | pest or weed control at 200 ppm [3] | inhibition of growth at 20 ppm [4]

COCC(=O)NCc1ccc(-c2noc(C(F)(F)F)n2)s1 [Compound 2.3, 2-methoxy-N-[[5-[5-(trifluoromethyl)-1,2,4-oxadiazol-3-yl]-2-thienyl]methyl]acetamide]
≥ 80%: pest or weed control at 200 ppm [1] | pest or weed control at 200 ppm [2] | pest or weed control at 200 ppm [3] | inhibition of growth at 20 ppm [4]

CN(Cc1ccc(-c2noc(C(F)(F)F)n2)s1)C(=O)CC(F)(F)F [Compound 4.40, 3,3,3-trifluoro-N-methyl-N-[[5-[5-(trifluoromethyl)-1,2,4-oxadiazol-3-yl]-2-thienyl]methyl]propanamide]
≥ 80%: pest or weed control at 200 ppm [1] | pest or weed control at 200 ppm [2] | pest or weed control at 200 ppm [3] | inhibition of growth at 20 ppm [4]

O=C(NCc1ccc(-c2noc(C(F)(F)F)n2)s1)C1CCCO1 (stereo not shown) [Compound 3.8, N-[[5-[5-(trifluoromethyl)-1,2,4-oxadiazol-3-yl]-2-thienyl]methyl]tetrahydrofuran-2-carboxamide]
≥ 80%: pest or weed control at 200 ppm [1] | pest or weed control at 200 ppm [2] | pest or weed control at 200 ppm [3] | inhibition of growth at 20 ppm [4]

COCCC(=O)NCc1ccc(-c2noc(C(F)(F)F)n2)s1 [Compound 2.4, 3-methoxy-N-[[5-[5-(trifluoromethyl)-1,2,4-oxadiazol-3-yl]-2-thienyl]methyl]propanamide]
≥ 80%: pest or weed control at 200 ppm [1] | pest or weed control at 200 ppm [2] | pest or weed control at 200 ppm [3] | inhibition of growth at 20 ppm [4]

CN(Cc1ccc(-c2noc(C(F)(F)F)n2)s1)C(=O)C1CCC1 [Compound 5.20, N-methyl-N-[[5-[5-(trifluoromethyl)-1,2,4-oxadiazol-3-yl]-2-thienyl]methyl]cyclobutanecarboxamide]
≥ 80%: pest or weed control at 200 ppm [1] | pest or weed control at 200 ppm [2] | pest or weed control at 200 ppm [3] | inhibition of growth at 20 ppm [4]
